Source: PubChem BioAssay (NCI)
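48-hour exposure; five concentrations; linearly interpolated endpoints. At the GI50, growth is halved. Definition used: TGI = concentration required for complete inhibition of growth.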

How the values were obtained:
Test in all cases: NCI-60 cell line screen, 48 h
786-0 renal = test system: 786-0 renal
A498 renal = test system: A498 renal
A549 NSCLC = test system: A549 NSCLC
ACHN renal = test system: ACHN renal
BT-549 breast = test system: BT-549 breast
CAKI-1 renal = test system: CAKI-1 renal
CCRF-CEM leukemia = test system: CCRF-CEM leukemia
COLO 205 colon = test system: COLO 205 colon
DU-145 prostate = test system: DU-145 prostate
EKVX NSCLC = test system: EKVX NSCLC
HCC-2998 colon = test system: HCC-2998 colon
HCT-116 colon = test system: HCT-116 colon
HCT-15 colon = test system: HCT-15 colon
HL-60(TB) leukemia = test system: HL-60(TB) leukemia
HOP-62 NSCLC = test system: HOP-62 NSCLC
HOP-92 NSCLC = test system: HOP-92 NSCLC
HS 578T breast = test system: HS 578T breast
HT29 colon = test system: HT29 colon
K-562 leukemia = test system: K-562 leukemia
KM12 colon = test system: KM12 colon
LOX IMVI melanoma = test system: LOX IMVI melanoma
M14 melanoma = test system: M14 melanoma
MALME-3M melanoma = test system: MALME-3M melanoma
MCF7 breast = test system: MCF7 breast
MDA-MB-231 breast = test system: MDA-MB-231 breast
MOLT-4 leukemia = test system: MOLT-4 leukemia
NCI-H226 lung = test system: NCI-H226 lung
NCI-H23 lung = test system: NCI-H23 lung
NCI-H460 lung = test system: NCI-H460 lung
NCI-H522 lung = test system: NCI-H522 lung
NCI/ADR-RES ovarian = test system: NCI/ADR-RES ovarian
OVCAR-4 ovarian = test system: OVCAR-4 ovarian
OVCAR-5 ovarian = test system: OVCAR-5 ovarian
OVCAR-8 ovarian = test system: OVCAR-8 ovarian
PC-3 prostate = test system: PC-3 prostate
RPMI-8226 leukemia = test system: RPMI-8226 leukemia
RXF 393 renal = test system: RXF 393 renal
SF-268 CNS = test system: SF-268 CNS
SF-295 CNS = test system: SF-295 CNS
SF-539 CNS = test system: SF-539 CNS
SK-MEL-2 melanoma = test system: SK-MEL-2 melanoma
SK-MEL-28 melanoma = test system: SK-MEL-28 melanoma
SK-MEL-5 melanoma = test system: SK-MEL-5 melanoma
SK-OV-3 ovarian = test system: SK-OV-3 ovarian
SN12C renal = test system: SN12C renal
SNB-19 CNS = test system: SNB-19 CNS
SNB-75 CNS = test system: SNB-75 CNS
SR leukemia = test system: SR leukemia
SW-620 colon = test system: SW-620 colon
T-47D breast = test system: T-47D breast
TK-10 renal = test system: TK-10 renal
U251 CNS = test system: U251 CNS
UACC-257 melanoma = test system: UACC-257 melanoma
UACC-62 melanoma = test system: UACC-62 melanoma
UO-31 renal = test system: UO-31 renal

Compound `COC(=O)c1cc(-c2ccc(OC)cc2)[nH]c1N/N=C/c1c(Cl)cccc1Cl` has a GI50 (786-0 renal) of 331 nM, a TGI (786-0 renal) of 4.79 µM and a GI50 (A498 renal) of 185 nM. For the same compound, the TGI (A498 renal) was 3.43 µM, the GI50 (A549 NSCLC) was 361 nM and the TGI (A549 NSCLC) was 4.48 µM. The GI50 (ACHN renal) was 316 nM, the TGI (ACHN renal) was 4.42 µM and the GI50 (BT-549 breast) was 177 nM. For the same compound, the TGI (BT-549 breast) was 2020 nM, the GI50 (CAKI-1 renal) was 351 nM and the TGI (CAKI-1 renal) was 15.5 µM. The GI50 (CCRF-CEM leukemia) was 312 nM, the TGI (CCRF-CEM leukemia) was 3.39 µM and the GI50 (COLO 205 colon) was 846 nM. The TGI (COLO 205 colon) was 2930 nM, the GI50 (DU-145 prostate) was 229 nM and the TGI (DU-145 prostate) was 831 nM. For the same compound, the GI50 (EKVX NSCLC) was 224 nM, the TGI (EKVX NSCLC) was 3.23 µM and the GI50 (HCC-2998 colon) was 118 nM. It also gave a TGI (HCC-2998 colon) of 536 nM, a GI50 (HCT-116 colon) of 354 nM and a TGI (HCT-116 colon) of 2140 nM. It also gave a GI50 (HCT-15 colon) of 204 nM, a TGI (HCT-15 colon) of 1490 nM and a GI50 (HL-60(TB) leukemia) of 235 nM. For the same compound, the TGI (HL-60(TB) leukemia) was 574 nM, the GI50 (HOP-62 NSCLC) was 275 nM and the TGI (HOP-62 NSCLC) was 4.71 µM. The GI50 (HOP-92 NSCLC) was 206 nM, the TGI (HOP-92 NSCLC) was 2500 nM and the GI50 (HS 578T breast) was 190 nM. For the same compound, the TGI (HS 578T breast) was 2820 nM, the GI50 (HT29 colon) was 255 nM and the TGI (HT29 colon) was 1260 nM. The GI50 (K-562 leukemia) was 144 nM, the TGI (K-562 leukemia) was 6.65 µM and the GI50 (KM12 colon) was 141 nM. The TGI (KM12 colon) was 6.75 µM, the GI50 (LOX IMVI melanoma) was 146 nM and the TGI (LOX IMVI melanoma) was 5.42 µM. The GI50 (M14 melanoma) was 196 nM, the TGI (M14 melanoma) was 1100 nM and the GI50 (MALME-3M melanoma) was 316 nM. The GI50 (MCF7 breast) was 107 nM, the TGI (MCF7 breast) was 887 nM and the GI50 (MDA-MB-231 breast) was 462 nM. It also gave a TGI (MDA-MB-231 breast) of 3.24 µM, a GI50 (MOLT-4 leukemia) of 415 nM and a GI50 (NCI-H226 lung) of 574 nM. For the same compound, the TGI (NCI-H226 lung) was 28.1 µM, the GI50 (NCI-H23 lung) was 412 nM and the TGI (NCI-H23 lung) was 14 µM. The GI50 (NCI-H460 lung) was 201 nM, the TGI (NCI-H460 lung) was 992 nM and the GI50 (NCI-H522 lung) was 87.7 nM. It also gave a TGI (NCI-H522 lung) of 491 nM, a GI50 (NCI/ADR-RES ovarian) of 160 nM and a TGI (NCI/ADR-RES ovarian) of 5.11 µM. For the same compound, the GI50 (OVCAR-4 ovarian) was 659 nM, the TGI (OVCAR-4 ovarian) was over 53.6 µM and the GI50 (OVCAR-5 ovarian) was 1490 nM. The TGI (OVCAR-5 ovarian) was 8.37 µM, the GI50 (OVCAR-8 ovarian) was 442 nM and the TGI (OVCAR-8 ovarian) was 5.16 µM. It also gave a GI50 (PC-3 prostate) of 261 nM, a TGI (PC-3 prostate) of 3.78 µM and a GI50 (RPMI-8226 leukemia) of 187 nM. It also gave a TGI (RPMI-8226 leukemia) of 575 nM, a GI50 (RXF 393 renal) of 142 nM and a TGI (RXF 393 renal) of 332 nM. The GI50 (SF-268 CNS) was 203 nM, the TGI (SF-268 CNS) was 10.4 µM and the GI50 (SF-295 CNS) was 124 nM. For the same compound, the TGI (SF-295 CNS) was 1490 nM, the GI50 (SF-539 CNS) was 172 nM and the TGI (SF-539 CNS) was 553 nM. The GI50 (SK-MEL-2 melanoma) was 377 nM, the TGI (SK-MEL-2 melanoma) was 8.2 µM and the GI50 (SK-MEL-28 melanoma) was 387 nM. It also gave a TGI (SK-MEL-28 melanoma) of over 100 µM, a GI50 (SK-MEL-5 melanoma) of 198 nM and a TGI (SK-MEL-5 melanoma) of 3.5 µM. It also gave a GI50 (SK-OV-3 ovarian) of 188 nM, a TGI (SK-OV-3 ovarian) of 2190 nM and a GI50 (SN12C renal) of 507 nM. For the same compound, the TGI (SN12C renal) was 18.7 µM, the GI50 (SNB-19 CNS) was 358 nM and the TGI (SNB-19 CNS) was 11.5 µM. For the same compound, the GI50 (SNB-75 CNS) was 161 nM, the TGI (SNB-75 CNS) was 725 nM and the GI50 (SR leukemia) was 90.9 nM. For the same compound, the TGI (SR leukemia) was 1180 nM, the GI50 (SW-620 colon) was 260 nM and the TGI (SW-620 colon) was 97.5 µM. It also gave a GI50 (T-47D breast) of 505 nM, a TGI (T-47D breast) of over 31.8 µM and a GI50 (TK-10 renal) of 568 nM. For the same compound, the TGI (TK-10 renal) was 13.8 µM, the GI50 (U251 CNS) was 292 nM and the TGI (U251 CNS) was 1820 nM. For the same compound, the GI50 (UACC-257 melanoma) was 409 nM, the TGI (UACC-257 melanoma) was 9.17 µM and the GI50 (UACC-62 melanoma) was 205 nM. It also gave a TGI (UACC-62 melanoma) of 16.8 µM, a GI50 (UO-31 renal) of 287 nM and a TGI (UO-31 renal) of 2550 nM.
